The source of these data is US10188613B2 (UNIVERSITY OF SOUTH FLORIDA, priority 1998, dated 2019).

Structures can show the parent of a compound that is named as a salt.

Data set [1] relates to TS patients. Particulars: Tourette's Syndrome patients; cited from earlier work.
The subject of data set [2] is Sprague-Dawley derived rats. In words: Prevention of sensitized locomotor stimulant response to nicotine (Example 1). It counts as in vivo, rat. Particulars: lower doses; nicotine test on day 9.
In data set [3] the test system is Sprague-Dawley rats. Put plainly: Mecamylamine blockade of nicotine-induced seizures (Example 2). It counts as in vivo, rat. The following applies: for nicotine-induced seizures (percentage of rats that seized): 0.1, 0.3, 1.0 mg/kg s.c. 15 min before nicotine 3.6 mg/kg s.c.; for duration and severity of seizure vs saline comparison group / seizure latency vs saline control: 0.3 and 1.0 mg/kg s.c.

Data set [4] relates to vagotomized, pithed and artificially respired rats. In words: Pithed rat: cardiovascular responses to sympathetic nerve stimulation (Example 3). It counts as in vivo. The following applies: for stimulation-induced increases in MAP: 0.8 and 2.2 Hz stimulation, i.v. bolus; for increases in heart rate (δ HR) vs saline-treated rats: 2.2 Hz, highest dose (10 mg/kg i.v.).
Data set [5] has the same test system. Put plainly: Pithed rat: plasma catecholamine responses, HPLC (Example 3). In kind it is in vivo.
Description: The aim of the study was to determine whether mecamylamine and its stereoisomers have any effect on pressor responses and increases in plasma catecholamines in response to sympathetic nerve stimulation.
In the vagotomized, pithed and artificially respired rats (with oxygen mixed with air), the cardiovascular responses to test compounds measured were mean arterial blood pressure and heart rate; and the catecholamine responses measured were plasma norepinephrine, epinephrine and dopamine. These variables were measured in rats at rest and after electrical stimulation of sympathetic outflow at 0.2 Hz, 0.8 Hz, and 2.2 Hz for a one-minute duration (50 V, 1 msec pulse), and before and after administration of vehicle or a drug. Catecholamine assays were performed by specific HPLC testing. […] Statistical analysis were applied as appropriate.
Plasma catecholamine (CA) levels—norepinephrine (NE), epinephrine (EPI), and dopamine (DA)—were measured by HPLC with an electrochemical detector following administration of doses of all forms of mecamylamine.
The subject of data set [6] is Sprague-Dawley rats. In words: Effects of mecamylamine alone at high dose: seizures and spontaneous locomotor activity (Example 2). In kind it is in vivo, rat. The following applies: 10 mg/kg s.c., 30 min. As to the method: Male Sprague-Dawley rats (n=96) weighing between 200 and 250 grams upon arrival were used for this study (Harlan Laboratories, Ind.). The rats were housed two per cage, allowed one week to acclimate to animal facility before testing, kept on a reverse lighting schedule (7:00-19:00 lights off), and allowed free access to food and water. Testing occurred between 10:00 a.m. and 3:00 p.m. in a dimly lit room maintained at 22° C. The experimental procedures carried out in this study were in compliance with the Guide for the Care and Use of Laboratory Animals (National Research Council, 1996) and had the prior approval of the University of South Florida Institutional Animal Care and Use Committee.
Observation of seizures and locomotor recordings were carried out in clear acrylic 41×41×30 cm test chambers inside Digiscan activity monitors (Accuscan, Inc.). Each monitor employs two arrays of infrared photocell beams (8×8 photocells, model RXYZCM-8) to detect several parameters of the rat's movement both horizontally and vertically. Data were collected in 5-min bins during testing.
All drugs were dissolved in physiological saline, and nicotine was adjusted to pH with HCl to 7.40. […] All doses are expressed as the free base of the drug. […]
Data was analyzed using a one-way analysis of variance followed by Fishers least significance test for multiple comparisons. […]

The target of data set [7] is T1, human α3β4 receptors (Homo sapiens, UniProt P30926+P32297).
T1 construct: expressed in transfected cells; host or cells: Xenopus laevis oocytes, cRNA injection
T1 sequence (P32297 32-505): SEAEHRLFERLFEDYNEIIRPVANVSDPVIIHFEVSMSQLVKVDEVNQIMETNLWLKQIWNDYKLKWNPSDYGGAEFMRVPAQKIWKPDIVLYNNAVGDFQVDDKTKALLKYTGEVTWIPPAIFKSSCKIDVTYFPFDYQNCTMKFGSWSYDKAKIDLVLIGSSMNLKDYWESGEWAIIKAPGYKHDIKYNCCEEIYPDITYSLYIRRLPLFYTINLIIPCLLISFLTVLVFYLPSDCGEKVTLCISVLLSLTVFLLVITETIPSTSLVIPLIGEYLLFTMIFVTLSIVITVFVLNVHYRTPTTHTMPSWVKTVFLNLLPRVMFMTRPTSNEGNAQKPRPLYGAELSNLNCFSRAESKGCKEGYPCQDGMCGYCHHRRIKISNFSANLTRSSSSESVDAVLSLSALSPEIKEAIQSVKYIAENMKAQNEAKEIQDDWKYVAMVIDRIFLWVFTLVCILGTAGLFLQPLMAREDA
T1 sequence (P30926 22-498): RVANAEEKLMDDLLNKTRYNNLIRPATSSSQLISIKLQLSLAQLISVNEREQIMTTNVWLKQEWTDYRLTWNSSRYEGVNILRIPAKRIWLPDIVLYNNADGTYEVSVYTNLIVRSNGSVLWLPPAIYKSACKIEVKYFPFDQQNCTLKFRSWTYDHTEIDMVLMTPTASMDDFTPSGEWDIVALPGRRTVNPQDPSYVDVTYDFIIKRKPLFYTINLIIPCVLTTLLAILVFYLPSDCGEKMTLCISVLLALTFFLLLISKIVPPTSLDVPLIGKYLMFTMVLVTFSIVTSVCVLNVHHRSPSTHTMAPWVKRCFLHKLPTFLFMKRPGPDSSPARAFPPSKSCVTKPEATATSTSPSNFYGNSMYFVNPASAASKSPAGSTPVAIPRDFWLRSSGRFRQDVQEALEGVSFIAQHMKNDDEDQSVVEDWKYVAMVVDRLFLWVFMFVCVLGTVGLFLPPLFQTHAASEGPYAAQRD
In words: Two-electrode voltage clamp, Xenopus oocytes expressing α3β4 receptors (Example 4). In kind it is cell-based. For orientation: Two-electrode voltage clamp holds a large cell at a set potential and records current.

Data set [8] deals with T2, human α4β2 receptors (Homo sapiens, UniProt P17787+P43681).
T2 construct: expressed in transfected cells; host or cells: Xenopus laevis oocytes, cRNA injection
T2 sequence (P43681 29-627 limits assumed): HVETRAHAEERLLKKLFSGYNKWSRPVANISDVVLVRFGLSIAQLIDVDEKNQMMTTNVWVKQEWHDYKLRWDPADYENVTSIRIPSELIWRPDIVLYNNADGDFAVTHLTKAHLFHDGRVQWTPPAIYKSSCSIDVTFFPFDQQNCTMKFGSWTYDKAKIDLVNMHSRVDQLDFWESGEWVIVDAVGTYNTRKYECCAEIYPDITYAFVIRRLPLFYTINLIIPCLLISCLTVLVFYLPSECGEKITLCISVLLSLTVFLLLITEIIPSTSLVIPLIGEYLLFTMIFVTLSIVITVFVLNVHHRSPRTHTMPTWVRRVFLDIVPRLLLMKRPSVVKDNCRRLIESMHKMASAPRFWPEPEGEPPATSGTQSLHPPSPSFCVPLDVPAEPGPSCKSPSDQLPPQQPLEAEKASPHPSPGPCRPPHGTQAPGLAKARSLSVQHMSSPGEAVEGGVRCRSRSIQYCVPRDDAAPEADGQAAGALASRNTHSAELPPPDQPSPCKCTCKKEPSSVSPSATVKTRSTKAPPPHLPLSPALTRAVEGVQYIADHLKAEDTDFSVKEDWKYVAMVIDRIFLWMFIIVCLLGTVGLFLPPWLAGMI
T2 sequence (P17787 26-502): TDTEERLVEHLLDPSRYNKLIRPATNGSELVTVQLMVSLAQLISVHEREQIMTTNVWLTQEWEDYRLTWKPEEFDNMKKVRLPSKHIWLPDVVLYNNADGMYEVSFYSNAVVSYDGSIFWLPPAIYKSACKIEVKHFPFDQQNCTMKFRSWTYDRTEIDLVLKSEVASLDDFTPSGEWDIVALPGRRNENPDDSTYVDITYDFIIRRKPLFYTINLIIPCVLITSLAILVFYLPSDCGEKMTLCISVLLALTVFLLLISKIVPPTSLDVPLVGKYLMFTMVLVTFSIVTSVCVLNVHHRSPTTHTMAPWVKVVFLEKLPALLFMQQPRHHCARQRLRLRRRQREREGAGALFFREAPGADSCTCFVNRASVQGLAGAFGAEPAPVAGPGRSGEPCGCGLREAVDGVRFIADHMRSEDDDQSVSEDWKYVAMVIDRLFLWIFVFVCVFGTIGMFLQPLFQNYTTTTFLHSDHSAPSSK
Put plainly: Two-electrode voltage clamp, Xenopus oocytes expressing α4β2 receptors (Example 4). In kind it is cell-based. How it is done: Voltage dependence and binding reversibility also were determined. Mature female Xenopus laevis African toads were used as a source of oocytes. After linearization and purification of cloned cDNAs, RNA transcripts were prepared in vitro using the appropriate mMessage mMachine® kit from Ambion Inc. (Austin Tex.). Harvested oocytes were treated with collagenase (Worthington Biochemical Corporation, Freehold N.J.) for two hr at room temperature in calcium-free solution. Subsequently stage 5 oocytes were isolated and injected with 50 nL each of a mixture of the appropriate subunit(s) cRNAs. Recordings were made about 1-7 days after cRNA injection.
For electrophysiology, oocyte recordings were made with an oocyte amplifier (e.g., Warner Instruments, Hamden, Conn., No. OC-725C) and RC-8 recording chamber. Oocytes were placed in the recording chamber with a total volume of about 0.6 ml and perfused at room temperature by frog Ringer's solution (115 mM NaCl, 2.5 mM KCl, 10 mM HEPES pH 7.3, and 1.8 mM CaCl2) containing 1 µM atropine to inhibit potential muscarinic responses. A Mariotte flask filled with Ringer's solution was used to maintain a constant hydrostatic pressure for drug delivery and washes. Drugs were diluted in perfusion solution and loaded into a 2 ml loop at the terminus of the perfusion line. A bypass of the drug-loading loop allowed bath solution to flow continuously while the drug loop was loaded. The drug application was synchronized with data acquisition by using a 2-way electronic valve. The rate of bath solution exchange and drug application was preferably about 6 ml/min. Current electrodes were filled with a solution containing 250 mMCsCl, 250 mM CsF and 100 mM EGTA and had resistances of 0.5-2 MΩ. […]
For experiments assessing voltage-dependence of drug inhibition, oocytes were initially voltage clamped at a holding potential of −40 mV or −90 mV and […] control application of ACh alone was delivered. […] Residual inhibition was evaluated with a subsequent application of ACh alone at the test potential, after a 5-min wash period.

The target of data set [9] is T3, human α3β2 receptors (Homo sapiens, UniProt P17787+P32297).
T3 construct: expressed in transfected cells; host or cells: Xenopus laevis oocytes, cRNA injection
T3 sequence (P32297 32-505): as the sequence (P32297 32-505) above
T3 sequence (P17787 26-502): as the sequence (P17787 26-502) above
Put plainly: Two-electrode voltage clamp, Xenopus oocytes expressing α3β2 receptors (Example 4). In kind it is cell-based.

Data set [10] deals with T4, human α7 receptors (Homo sapiens, UniProt P36544).
T4 construct: expressed in transfected cells; host or cells: Xenopus laevis oocytes, cRNA injection
T4 sequence (P36544 23-502): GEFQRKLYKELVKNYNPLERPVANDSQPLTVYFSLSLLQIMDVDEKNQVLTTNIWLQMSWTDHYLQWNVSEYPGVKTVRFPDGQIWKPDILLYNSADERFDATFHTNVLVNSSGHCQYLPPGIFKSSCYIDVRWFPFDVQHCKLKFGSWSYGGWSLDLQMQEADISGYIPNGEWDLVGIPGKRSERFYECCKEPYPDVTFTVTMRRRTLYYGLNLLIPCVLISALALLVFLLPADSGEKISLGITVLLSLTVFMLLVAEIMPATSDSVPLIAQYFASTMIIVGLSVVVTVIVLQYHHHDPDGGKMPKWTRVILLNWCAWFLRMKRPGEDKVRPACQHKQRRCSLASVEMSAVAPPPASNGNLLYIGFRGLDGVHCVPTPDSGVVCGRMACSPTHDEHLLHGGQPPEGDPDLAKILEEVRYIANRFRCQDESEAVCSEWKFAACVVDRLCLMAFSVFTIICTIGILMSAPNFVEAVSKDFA
Put plainly: Two-electrode voltage clamp, Xenopus oocytes expressing α7 receptors (Example 4). In kind it is cell-based.

In data set [11] the target is α1β1δε mouse muscle receptors (Mus musculus, UniProt P02716+P04756+P09690+P20782). In words: Oocyte electrophysiology, muscle receptor selectivity (Example 4). In kind it is cell-based. How it is done: (§1) For electrophysiology, oocyte recordings were made with an oocyte amplifier (e.g., Warner Instruments, Hamden, Conn., No. OC-725C) and RC-8 recording chamber. Oocytes were placed in the recording chamber with a total volume of about 0.6 ml and perfused at room temperature by frog Ringer's solution (115 mM NaCl, 2.5 mM KCl, 10 mM HEPES pH 7.3, and 1.8 mM CaCl2) containing 1 µM atropine to inhibit potential muscarinic responses. A Mariotte flask filled with Ringer's solution was used to maintain a constant hydrostatic pressure for drug delivery and washes. Drugs were diluted in perfusion solution and loaded into a 2 ml loop at the terminus of the perfusion line. A bypass of the drug-loading loop allowed bath solution to flow continuously while the drug loop was loaded. The drug application was synchronized with data acquisition by using a 2-way electronic valve. The rate of bath solution exchange and drug application was preferably about 6 ml/min. Current electrodes were filled with a solution containing 250 mMCsCl, 250 mM CsF and 100 mM EGTA and had resistances of 0.5-2 MΩ. Voltage electrodes were filed with 3M KCl and have resistances of 1-3MΩ. Oocytes with resting membrane potentials more positive than −30 mV were not used.
Chain of α1β1δε mouse muscle receptors (P04756 21-457): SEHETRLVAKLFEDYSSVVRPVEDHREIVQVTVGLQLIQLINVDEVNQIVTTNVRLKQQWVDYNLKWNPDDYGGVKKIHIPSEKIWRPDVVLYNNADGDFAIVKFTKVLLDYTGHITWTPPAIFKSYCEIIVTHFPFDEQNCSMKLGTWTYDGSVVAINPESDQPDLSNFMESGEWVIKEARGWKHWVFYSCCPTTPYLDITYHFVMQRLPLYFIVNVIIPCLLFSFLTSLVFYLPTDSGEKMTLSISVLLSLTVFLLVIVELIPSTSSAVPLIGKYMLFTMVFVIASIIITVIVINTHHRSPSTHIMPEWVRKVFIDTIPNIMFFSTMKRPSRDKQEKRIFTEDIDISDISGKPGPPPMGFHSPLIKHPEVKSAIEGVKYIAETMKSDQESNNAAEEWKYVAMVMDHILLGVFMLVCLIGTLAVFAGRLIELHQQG
Chain of α1β1δε mouse muscle receptors (P09690 24-501): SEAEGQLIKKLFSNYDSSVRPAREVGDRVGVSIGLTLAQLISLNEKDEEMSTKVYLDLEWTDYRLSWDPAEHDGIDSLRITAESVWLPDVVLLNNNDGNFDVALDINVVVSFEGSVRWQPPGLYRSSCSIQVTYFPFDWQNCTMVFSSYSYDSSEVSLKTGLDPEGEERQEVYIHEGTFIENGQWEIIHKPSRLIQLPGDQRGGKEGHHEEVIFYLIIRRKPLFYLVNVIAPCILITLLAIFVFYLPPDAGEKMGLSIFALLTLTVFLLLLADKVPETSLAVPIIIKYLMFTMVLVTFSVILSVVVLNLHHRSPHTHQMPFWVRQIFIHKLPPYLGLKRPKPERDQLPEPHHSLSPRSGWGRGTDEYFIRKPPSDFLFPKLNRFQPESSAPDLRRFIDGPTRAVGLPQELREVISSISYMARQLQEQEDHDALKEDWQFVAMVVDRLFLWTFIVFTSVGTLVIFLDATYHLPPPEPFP
Chain of α1β1δε mouse muscle receptors (P02716 25-520): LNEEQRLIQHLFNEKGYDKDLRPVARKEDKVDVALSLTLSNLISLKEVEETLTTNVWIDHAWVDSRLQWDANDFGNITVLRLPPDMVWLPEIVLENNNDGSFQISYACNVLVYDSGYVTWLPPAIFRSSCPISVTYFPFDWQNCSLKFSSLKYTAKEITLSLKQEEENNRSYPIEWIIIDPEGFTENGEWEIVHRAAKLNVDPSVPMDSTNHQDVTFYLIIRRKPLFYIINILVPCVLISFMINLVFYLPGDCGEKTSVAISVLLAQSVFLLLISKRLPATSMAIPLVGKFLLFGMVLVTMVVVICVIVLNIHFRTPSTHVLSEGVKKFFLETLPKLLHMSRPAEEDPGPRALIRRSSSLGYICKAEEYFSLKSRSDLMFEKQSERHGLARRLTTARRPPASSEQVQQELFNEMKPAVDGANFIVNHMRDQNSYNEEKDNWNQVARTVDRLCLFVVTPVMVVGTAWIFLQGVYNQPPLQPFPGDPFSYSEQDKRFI
Chain of α1β1δε mouse muscle receptors (P20782 21-493): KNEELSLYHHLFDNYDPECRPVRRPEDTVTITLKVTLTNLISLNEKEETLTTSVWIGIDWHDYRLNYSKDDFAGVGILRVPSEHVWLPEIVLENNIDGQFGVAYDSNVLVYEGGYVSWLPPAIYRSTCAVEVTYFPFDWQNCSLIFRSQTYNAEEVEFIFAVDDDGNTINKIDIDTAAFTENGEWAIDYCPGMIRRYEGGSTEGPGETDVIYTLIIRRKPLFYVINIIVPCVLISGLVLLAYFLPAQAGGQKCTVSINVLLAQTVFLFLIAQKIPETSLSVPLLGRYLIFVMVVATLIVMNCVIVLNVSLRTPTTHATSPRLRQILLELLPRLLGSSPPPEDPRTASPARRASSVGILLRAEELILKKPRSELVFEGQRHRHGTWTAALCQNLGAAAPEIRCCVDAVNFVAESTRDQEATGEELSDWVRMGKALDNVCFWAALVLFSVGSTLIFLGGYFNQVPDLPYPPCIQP
(§2) Holding currents immediately before agonist application were subtracted from measurements of the peak response to agonist. […]

For data set [12], the target named is NMDA receptor subunits NR1 and NR2b (Homo sapiens, UniProt Q05586+Q13224). Put plainly: Oocytes coexpressing NMDA receptor subunits (Example 4). It counts as cell-based. The following applies: 100 μM; reversible after a 5-min wash. As to the method: as §1, §2
Data set [13] concerns nicotine receptors. Put plainly: Oocyte electrophysiology, recovery time course and agonist test, receptor subtype not specified (Example 4). It counts as cell-based, human.
Data set [14] addresses hDAT (dopamine transporter) (Homo sapiens, UniProt Q01959). In words: [125I]RTI-55 binding, HEK293-hDAT membranes (Example 5). Particulars: [125I]RTI-55 competition.
Data set [15] deals with hSERT (serotonin transporter) (Homo sapiens, UniProt P31645). Put plainly: [125I]RTI-55 binding, HEK293-hSERT membranes (Example 5). Particulars: [125I]RTI-55 competition.
For data set [16], the target named is hNET (norepinephrine transporter) (Homo sapiens, UniProt P23975). Put plainly: [125I]RTI-55 binding, HEK293-hNET membranes (Example 5). Particulars: [125I]RTI-55 competition.
Data set [17] concerns Swiss-Webster mice. Put plainly: Locomotor depression test, compound alone (Example 6). In kind it is in vivo, mouse.
In data set [18] the test system is Swiss-Webster mice. Put plainly: Cocaine interaction study, locomotor activity (Example 6). In kind it is in vivo, mouse. Particulars: 10 mg/kg ip + cocaine 20 mg/kg ip.
The mark [19] stands for this setting: 0.1 mg/kg s.c., nicotine 3.6 mg/kg.
[20] abbreviates: after co-application of 10 μM with ACh.

`O=C(CCCN1CCC(O)(c2ccc(Cl)cc2)CC1)c1ccc(F)cc1` [haloperidol]: the “cases in which treatment is effective / success rate for motor and vocal tics” value in [1] was “about 70%”.
As to `CN[C@]1(C)[C@H]2CC[C@H](C2)C1(C)C` [exo-R-mecamylamine, reference compound], the “effectiveness of isomers compared, particularly center distance and vertical activity” value in [2] is listed as “generally more effective at lower doses”. For the same molecule, in [3] (setting [19]), the “duration of seizure vs saline comparison group” value is given as “did not differ from their saline comparison group”. In [3], the “nicotine-induced seizures (percentage of rats that seized)” value is “prevented nicotine-induced seizures in a dose-dependent manner”. Moreover, in data set [3] (nicotine 3.6 mg/kg), the “duration and severity of seizure vs saline comparison group” value is “significantly different from their saline comparison groups”; the “seizure latency vs saline control” value is “significantly longer latency”. In data set [4], the “stimulation-induced increases in MAP” value is listed as “completely abolished” and the “increases in heart rate (δ HR) vs saline-treated rats” value is “significantly lowered the increases in heart rate”. Besides, in data set [5] (2.2 Hz), the “plasma DA levels on sympathetic stimulation vs baseline” value was “significant increases in plasma DA levels” and the “stimulation-induced increases in plasma NE levels vs saline” value is on record as “significantly less”.
Turning to `CN[C@@]1(C)[C@@H]2CC[C@@H](C2)C1(C)C` [exo-S-mecamylamine, exo-S-N,2,3,3-tetramethyl-bicycl-o-[2.1.1]heptan-2-amine hydrochloride], the “duration of seizure vs saline comparison group” value in data set [3] (setting [19]) was “significantly different from their saline comparison groups”. For the same molecule, the “seizure latency vs saline comparison group” value in data set [3] (setting [19]) is given as “significantly longer seizure latency”. Besides, the “nicotine-induced seizures (percentage of rats that seized)” value in [3] was “prevented nicotine-induced seizures in a dose-dependent manner”. In data set [3] (nicotine 3.6 mg/kg), the “duration and severity of seizure vs saline comparison group” value is “significantly different from their saline comparison groups”. Besides, in data set [3] (nicotine 3.6 mg/kg), the “seizure latency vs saline control” value was “significantly longer latency”. The “number of rats with nicotine-seizures compared with exo-R-mecamylamine” value in [3] (lowest dose 0.1 mg/kg) is recorded as “fewer rats had nicotine-seizures”. Also, the “spontaneous locomotor activity, total distance traveled” value in data set [6] was “signigicantly less locomotor depressant effects”. Further, in data set [4], the “stimulation-induced increases in MAP” value is recorded as “completely abolished”. In [4], the “increases in heart rate (δ HR) vs saline-treated rats” value was “significantly lowered the increases in heart rate”. Further, in data set [4] (of the three forms), the “potency rank, stimulation-induced pressor responses” value is on record as “most potent”. Moreover, the “stimulation-induced increases in plasma NE levels vs saline” value in data set [5] (2.2 Hz) was “significantly decreased stimulation-evoked plasma NE increases”. The “stimulation-induced plasma EPI responses” value in data set [5] (2.2 Hz) is listed as “significant decrease in stimulation-induced plasma EPI responses”. In addition, the “overall effectiveness on plasma CA and sympathetically-mediated cardiovascular responses” value in data set [5] (of the three forms) is given as “most effective in reducing plasma CA”. Also, the “voltage dependence of inhibition” value in data set [7] (1 μM, -40 mV vs 90 mV [sic]) is “significant voltage dependence”; in [8] (5 μM, -40 mV vs 90 mV [sic]) it was “significant voltage dependence”; in data set [9] (5 μM, -40 mV vs 90 mV [sic]), “significantly different responses”; in data set [10] (10 μM, -40 mV vs 90 mV [sic]), “significantly different responses”. The “residual inhibition: control ACh response 5 min after exposure” value was “marked decrease in subsequent control response to ACh” in data set [7] (5 min wash), “greatest for β2-containing receptors” in data set [8] (5 min wash), “greatest for β2-containing receptors” in data set [9] (5 min wash) and “least for α7 receptors” in [10] (5 min wash). Also, the “time constant of recovery, compared with α3β2” value in data set [8] (setting [20]) is “similar”. Also, the “time constant of recovery” value in data set [9] (setting [20]) is “about 33 min”. The “IC50 rank among receptor subtypes” value in data set [10] (control ACh 300 μM, -50 mV) was “least potent at inhibiting α7 receptors”. Also, the “inhibition of muscle receptors after wash” value in data set [11] (5-min wash) was “fully reversed”. The “effect on muscle receptors” value in data set [11] (control ACh 3 μM) is given as “very little effect”. Further, the “inhibition of response to 10 μM glutamate+10 μM glycine” value in data set [12] was “transient inhibition”. Besides, the initial inhibition entry in data set [13] (co-application of 10 μM and ACh at control concentration) was “greater than 50%”. Besides, in data set [13] (compared with exo-R-mecamylamine), the “off-loading from some receptors” value is on record as “slower than exo-R-mecamylamine”. Also, the “affinity for binding site compared with cocaine” value in data set [14], in [15] and in [16] was “lower than the affinity of cocaine” in each case. Besides, the “effect on locomotor activity in the last 30 minutes of testing” value in data set [17] (1 and 3 mg/kg ip) is given as “Stimulant effects”. Besides, the “dose producing one half of the maximal depressant activity” value in data set [17] (ip, 20 min before testing, maximal depression = 0 counts in 30 minutes) is recorded as 8.5 mg/kg. Besides, the “locomotion at 30 minutes vs saline/cocaine” value in data set [18] is listed as “significantly different from the result of cocaine alone”.
Take `Clc1cccc(Cl)c1N=C1NCCN1` [clonidine]: the “cases in which treatment is effective / success rate for motor and vocal tics” value in data set [1] is 40%.
